Measured values: the supplement of paper PMC10307832

Legend:
Experiment in all cases: relative viability (nuclei count vs DMSO), 5 days (fraction); higher = more cells survive
Linifanib + Bortezomib = compound: Cc1ccc(F)c(NC(=O)Nc2ccc(-c3cccc4[nH]nc(N)c34)cc2)c1 [Linifanib] + CC(C)C[C@H](NC(=O)[C@H](Cc1ccccc1)NC(=O)c1cnccn1)B(O)O [Bortezomib] (partner 0.002 µM)
Summary of the method: (§1)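 A single step with final 0.05% Triton X-100, 1% formaldehyde and 1 ug/ml Hoechst fixed the cells and stained nuclei 5 days after treatment. Lung cancer cell lines in 1536-well plates had been treated by pin tool the day after seeding with one drug alone or a fixed anchor-drug dose plus five library-drug doses (not always all listed) in √10 steps, and nuclei were counted on 4× images. Relative viability is the ratio of nuclei in treated wells to nuclei in vehicle wells, taken as the median of duplicate plates.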

Linifanib + Foretinib = compound: Cc1ccc(F)c(NC(=O)Nc2ccc(-c3cccc4[nH]nc(N)c34)cc2)c1 [Linifanib] + COc1cc2c(Oc3ccc(NC(=O)C4(C(=O)Nc5ccc(F)cc5)CC4)cc3F)ccnc2cc1OCCCN1CCOCC1 [Foretinib] (partner 0.25 µM)
Summary of the method: as §1

Linifanib + OSI-027 = compound: Cc1ccc(F)c(NC(=O)Nc2ccc(-c3cccc4[nH]nc(N)c34)cc2)c1 [Linifanib] + COc1cccc2cc(-c3nc([C@H]4CC[C@H](C(=O)O)CC4)n4ncnc(N)c34)[nH]c12 [OSI-027] (partner 0.5 µM)
Summary of the method: as §1

Linifanib + Lapatinib = compound: Cc1ccc(F)c(NC(=O)Nc2ccc(-c3cccc4[nH]nc(N)c34)cc2)c1 [Linifanib] + CS(=O)(=O)CCNCc1ccc(-c2ccc3ncnc(Nc4ccc(OCc5cccc(F)c5)c(Cl)c4)c3c2)o1 [Lapatinib] (partner 2 µM)
Summary of the method: as §1

Linifanib + Pictilisib = compound: Cc1ccc(F)c(NC(=O)Nc2ccc(-c3cccc4[nH]nc(N)c34)cc2)c1 [Linifanib] + CS(=O)(=O)N1CCN(Cc2cc3nc(-c4cccc5[nH]ncc45)nc(N4CCOCC4)c3s2)CC1 [Pictilisib] (partner 1 µM)
Summary of the method: as §1

Linifanib + Dasatinib = compound: Cc1ccc(F)c(NC(=O)Nc2ccc(-c3cccc4[nH]nc(N)c34)cc2)c1 [Linifanib] + Cc1nc(Nc2ncc(C(=O)Nc3c(C)cccc3Cl)s2)cc(N2CCN(CCO)CC2)n1 [Dasatinib] (partner 0.075 µM)
Summary of the method: as §1

Cell Line	relative viability (Linifanib + Bortezomib; first compound 0.03162 µM)	relative viability (Linifanib + Bortezomib; first compound 0.1 µM)	relative viability (Linifanib + Bortezomib; first compound 0.3162 µM)	relative viability (Linifanib + Foretinib; first compound 0.03162 µM)	relative viability (Linifanib + Foretinib; first compound 0.1 µM)	relative viability (Linifanib + Foretinib; first compound 0.3162 µM)	relative viability (Linifanib + OSI-027; first compound 0.03162 µM)	relative viability (Linifanib + OSI-027; first compound 0.1 µM)	relative viability (Linifanib + OSI-027; first compound 0.3162 µM)	relative viability (Linifanib + Lapatinib; first compound 0.03162 µM)	relative viability (Linifanib + Lapatinib; first compound 0.1 µM)	relative viability (Linifanib + Lapatinib; first compound 0.3162 µM)	relative viability (Linifanib + Pictilisib; first compound 0.03162 µM)	relative viability (Linifanib + Pictilisib; first compound 0.1 µM)	relative viability (Linifanib + Pictilisib; first compound 0.3162 µM)	relative viability (Linifanib + Dasatinib; first compound 0.03162 µM)	relative viability (Linifanib + Dasatinib; first compound 0.1 µM)	relative viability (Linifanib + Dasatinib; first compound 0.3162 µM)
NCI-H1734	1.04	1.15	0.93	0.87	0.989	0.856	0.597	0.618	0.53	1.04	1.19	1.01	0.501	0.526	0.373	0.529	0.53	0.428
NCI-H2009	1.25	1.05	0.963	1.24	1.25	1.15	0.705	0.673	0.644	1.23	0.928	0.941	0.873	0.973	0.835	0.323	0.358	0.304
NCI-H838	1.24	1.08	0.968	1.05	1.08	1.02	0.393	0.429	0.397	1.01	1.11	0.933	0.464	0.466	0.458	0.286	0.282	0.27
NCI-H2405	1.05	0.958	0.957	1.06	1.04	1.07	0.667	0.66	0.624	1.19	1.05	1.12	0.499	0.606	0.477	0.212	0.199	0.219
NCI-H1355	1.23	1.26	1.26	0.994	1.04	0.941	0.418	0.497	0.434	1.04	0.934	1.01	0.463	0.401	0.433	0.76	0.859	0.697
NCI-H1993	1.1	1.39	1.2	0.807	0.88	0.758	0.495	0.552	0.61	0.796	0.853	0.878	0.838	0.77	0.963	0.683	0.551	0.681
NCI-H1755	1.04	0.965	0.916	0.934	0.912	0.902	0.753	0.827	0.669	1.1	1.09	1.01	0.493	0.503	0.397	0.458	0.406	0.388
NCI-H650	0.816	0.814	0.864	1	1.03	0.994	0.493	0.584	0.514	1.16	0.941	0.766	0.777	0.905	0.871	0.461	0.451	0.444
NCI-H2347	1.11	1.16	0.778	1.09	1.25	0.782	0.476	0.434	0.415	0.955	0.927	0.909	0.863	0.987	0.817	0.356	0.399	0.284
SK-LU-1	1.11	1.2	1.19	0.805	0.816	0.811	0.387	0.472	0.337	0.84	1.12	0.738	0.529	0.602	0.542	0.205	0.196	0.193
NCI-H322M	1.24	1.21	1.27	0.939	1.06	1.02	0.629	0.584	0.503	0.582	0.539	0.537	0.513	0.491	0.557	0.253	0.256	0.216
NCI-H2023	1.03	1.28	0.975	0.807	0.806	0.836	0.426	0.539	0.37	0.801	1.06	0.733	0.221	0.297	0.263	0.543	0.681	0.565
LCLC-97TM1	0.866	0.868	0.56	0.865	0.961	0.852	0.718	0.624	0.563	1.51	0.984	0.858	0.208	0.196	0.169	0.887	1.04	0.678
SW 1573	0.972	1.04	1.08	0.897	1.21	0.843	0.648	0.665	0.625	1.27	1.27	1.15	0.43	0.517	0.417	0.578	0.931	0.539
HCC-15	1.04	0.99	0.988	1.01	1.04	1.09	0.735	0.795	0.7	0.841	0.839	0.853	0.833	0.804	0.71	0.635	0.709	0.725
NCI-H727	0.934	0.922	0.702	1.03	0.921	0.723	0.642	0.635	0.722	0.781	1.05	0.716	0.3	0.431	0.385	0.449	0.344	0.521
PC-14	0.924	0.989	0.746	0.976	0.951	0.914	0.844	1.08	0.762	0.32	0.436	0.305	0.617	0.823	0.682	0.259	0.262	0.266
